Data as given in patent US5726177A, “Indole-derived arylpiperazines as ligands for 5HT1 -like, 5HT1B and 5HT1D receptors” (Pierre Fabre Medicament, priority 1993, dated 1998).
Counter-ions that a name gives are not always drawn. Like-named read-outs stand apart in the source and are kept apart here.

Assays:
[1] = target: T1, 5-HT1B receptor (Didelphis virginiana, UniProt P35404); test: Agonist activity: inhibition of forskolin-stimulated cAMP formation mediated by a 5-HT1B receptor in OK kidney epithelial cell line; format: cell-based
T1 construct: mediated by a 5-HT1B receptor, in an OK kidney epithelial cell line; endogenous in cells; host or cells: OK kidney epithelial cell line
Description: STUDY OF THE AGONIST ACTIVITY WITH RESPECT TO THE 5-HT1B RECEPTORS
The measurements were carried out with respect to the inhibition of the formation of cAMP stimulated by forskolin, mediated by a 5-HT1B receptor, in an OK kidney epithelial cell line as described elsewhere (P. J. Pauwels and C. Palmier, Neuropharmacology, awaiting publication).

[2] = target: human 5HT1Da receptor (Homo sapiens, UniProt P28221); test: Binding to cloned human 5HT1Da receptor; conditions: human cloned receptor; [3H] ligand 2 nM; read-out: Ki 5HT1Da
Description: (§1) Human 5HT1Da and 5HT1Db receptors were cloned according to the sequences published by M. Hamblin and M. Metcalf, Mol. Pharmacol., 40, 143 (1991) and Weinshenk et al., Proc. Natl. Acad. Sci., 89, 3630 (1992).
(§2) The transient transfection and the stable transfection of the genes of these receptors was carried out in Cos-7 and CHO-K1 cell lines by using an electroporator.
(§3) The binding of the derivatives of the present invention with human 5HT1Da, 5HT1Db and 5HT1A receptors was studied according to the method described by P. Pauwels and C. Palmier (Neuropharmacology, 33, 67, 1994).
(§4) The incubation media for these binding measurements comprise 0.4 ml of cell membrane preparation, 0.05 ml of a tritiated ligand [[3H]-SCT (final concentration: 2 nM) for the 5HT1Da and 5HT1Db receptors and [3H]-80H-DPAT (final concentration: 1 nM) for the 5HT1A receptor] and 0.05 ml of the molecule to be tested (final concentrations from 0.1 nM to 1000 nM) or 10 μM (final concentration) of serotonin (5HT1Da and 5HT1Db) or 1 μM (final concentration) of spiroxatrin (5HT1A ).

[3] = target: T2, human 5HT1Db receptor (Homo sapiens, UniProt P28222); test: cell-based; conditions: human 5HT1Db; CHO-K1 cells; read-out: EC50 (Inhibition of the 5HT1Db cyclase stimulated by forskolin)
Description: as §1, §2
The inhibition of the formation of cyclic AMP (stimulated by forskolin) mediated by the human 5HT1Db receptor was studied in CHO-K1 cells transfected by the receptor according to the technique described previously for the 5HT1B receptor (P. Pauwels and C. Palmier, Neuropharmacology, 33, 67, 1994).

[4] = target: T2, human 5HT1Db receptor; test: Binding to cloned human 5HT1Db receptor; conditions: human cloned receptor; [3H] ligand 2 nM; read-out: Ki 5HT1Db
Description: as §1, §2, §3, §4

[5] = target: T3, 5-HT1A (Rattus norvegicus, UniProt P19327); test: Affinity for 5-HT1A receptors (method of Peroutka); format: binding
T3 construct: from tissue; host or cells: rat frontal cortex (from the title of the cited method)
T3 sequence (P19327 1-422): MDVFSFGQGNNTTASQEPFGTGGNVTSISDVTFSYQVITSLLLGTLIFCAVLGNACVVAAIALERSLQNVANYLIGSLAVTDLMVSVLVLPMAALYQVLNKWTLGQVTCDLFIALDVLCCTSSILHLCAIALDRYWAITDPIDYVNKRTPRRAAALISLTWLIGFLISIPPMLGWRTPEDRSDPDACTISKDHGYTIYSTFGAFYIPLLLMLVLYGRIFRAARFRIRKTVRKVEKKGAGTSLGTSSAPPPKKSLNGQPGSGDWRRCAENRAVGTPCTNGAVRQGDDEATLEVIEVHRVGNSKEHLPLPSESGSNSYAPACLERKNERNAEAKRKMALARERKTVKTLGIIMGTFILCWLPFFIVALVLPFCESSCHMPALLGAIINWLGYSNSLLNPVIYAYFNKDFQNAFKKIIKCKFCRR
Description: The affinities of the various products which form part of this invention for 5HT1A and 5HT1B receptors were measured according to the techniques described in:
Peroutka S. J. Pharmacological differentiation and characterization of 5HT1A, 5HT1B and 5HT1C binding sites in rat frontal cortex. J. Neurochem., 45, 529-540, 1986.

[6] = system: 5-HT1D receptors; test: Affinity for 5-HT1D receptors (3H-5HT binding, sheep caudate membranes); conditions: for Ratio 1A/1D (ratio of the IC50 values for the 5HT1A and 5HT1D receptors): selectivity 5-HT1D over 5-HT1A; for IC50: sheep caudate nuclei membranes, 3H-5HT, 25° C., 30 min
Description: STUDY OF THE AFFINITY FOR 5-HT1D RECEPTORS
This study is carried out according to the technique described by Pauwells et al. (Biochem. Pharmacol, 46, 535-538, 1993).
Preparation of the membranes
Sheep brains are removed in the local abattoir and transported in ice. The caudate nuclei are removed, weighed and homogenized with a Polytron for 20 sec (speed 6-7) in 20 volumes of Tris-HCl 50 mM, pH 7.7. The homogenate is centrifuged for 10 min at 48,000 g with an L5 50E centrifuge (Beckman).
The pellet, taken up in 20 volumes of Tris-HCl 50 mm, pH 7.7, is placed in a water bath at 37° C. for 10 min and then recentrifuged for 10 min at 48,000 g. The pellet then obtained is immediately frozen in fractions containing 0.5g of tissue.
The pellet is defrosted and homogenized with a Dounce in 80 volumes of Tris-HCl 50 mM, pH 7.7, containing 4 mM CaCl2, 10 μM of pargyline and 0.1% of ascorbic acid.
Affinity is produced at 25° C. by incubating for 30 min:
0.1 ml of buffer or 10 μM, as final concentration, of sumatriptan, in order to obtain the non-specific binding
0.1 ml of 3H-5HT (15 to 30 Ci:mM, New England Nuclear France).
The incubation is brought to an end by rapid filtration through GF/B filters and rinsing with 3 times 3 [illegible] ice-cold buffer, using a harvester manufactured by Brandel which makes it possible [illegible] to filter [illegible]samples. The filters are introduced into vials containing [illegible]ml of [illegible] [illegible] scintillant (Packard) and the radioactivity measured with a Tri-carb 4640 counter (Packard). The IC50 (concentration which inhibits the specific affinity by 50%) is determined graphically.

[7] = rat frontal cortex (Peroutka method), read-out: IC50 5-HT1A mean

T1 sequence (P35404 whole entry): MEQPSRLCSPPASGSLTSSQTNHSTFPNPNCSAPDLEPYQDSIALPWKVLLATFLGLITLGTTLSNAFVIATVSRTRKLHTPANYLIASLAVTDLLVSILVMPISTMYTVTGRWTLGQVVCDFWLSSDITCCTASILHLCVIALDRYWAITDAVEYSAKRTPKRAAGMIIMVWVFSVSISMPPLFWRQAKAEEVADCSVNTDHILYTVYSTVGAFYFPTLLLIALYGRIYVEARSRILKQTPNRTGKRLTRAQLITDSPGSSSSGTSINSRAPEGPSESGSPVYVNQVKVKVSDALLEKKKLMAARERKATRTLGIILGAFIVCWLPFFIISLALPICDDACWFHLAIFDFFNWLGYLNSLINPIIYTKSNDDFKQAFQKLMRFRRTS
T2 sequence (P28222 whole entry): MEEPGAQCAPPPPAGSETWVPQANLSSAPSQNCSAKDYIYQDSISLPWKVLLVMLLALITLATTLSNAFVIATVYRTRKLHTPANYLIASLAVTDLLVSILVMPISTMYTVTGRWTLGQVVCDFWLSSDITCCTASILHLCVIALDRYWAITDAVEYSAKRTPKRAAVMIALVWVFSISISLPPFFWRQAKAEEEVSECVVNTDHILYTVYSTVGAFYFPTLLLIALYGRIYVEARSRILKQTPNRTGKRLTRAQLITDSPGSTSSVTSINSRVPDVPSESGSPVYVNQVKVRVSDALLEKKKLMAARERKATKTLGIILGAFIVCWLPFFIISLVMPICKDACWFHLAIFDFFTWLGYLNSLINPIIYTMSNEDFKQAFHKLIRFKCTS
Sequence of human 5HT1Da receptor (P28221 whole entry): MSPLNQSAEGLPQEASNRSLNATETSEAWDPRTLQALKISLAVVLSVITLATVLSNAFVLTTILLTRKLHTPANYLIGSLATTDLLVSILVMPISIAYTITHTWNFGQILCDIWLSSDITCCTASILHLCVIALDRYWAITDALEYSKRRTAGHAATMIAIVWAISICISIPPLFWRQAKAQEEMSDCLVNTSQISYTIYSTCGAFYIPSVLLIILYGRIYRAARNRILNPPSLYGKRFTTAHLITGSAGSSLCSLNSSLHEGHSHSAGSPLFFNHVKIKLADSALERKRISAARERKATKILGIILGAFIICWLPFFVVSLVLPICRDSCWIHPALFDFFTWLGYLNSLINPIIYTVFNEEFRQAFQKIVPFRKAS

SMILES	IC50 [5, 7]	Ratio 1A/1D (ratio of the IC50 values for the 5HT1A and 5HT1D receptors) [6]	IC50 [6]	other results
NCCc1c[nH]c2ccc(OCC(=O)N3CCN(c4ccc([N+](=O)[O-])cc4)CC3)cc12 [Example 1, 2-[3-(2-Aminoethyl)-1H-indol-5-yloxy]-1-[4-(4-nitrophenyl)piperazin-1-yl]ethanone hydrochloride]				EC50 [1]: 0.3 to 1.2 nM; Ki [2]: 0.5 nM; EC50 [3]: 1.2 nM; Ki [4]: 1 nM
NCCc1c[nH]c2ccc(OCC(=O)N3CCN(c4ccc(N)cc4)CC3)cc12 [Example 2, 2-[3-(2-Aminoethyl)-1H-indol-5-yloxy]-1-[4-(4-aminophenyl)piperazin-1-yl]ethanone hydrochloride]				EC50 [1]: 0.3 to 1.2 nM
CC(=O)Nc1ccc(N2CCN(C(=O)COc3ccc4[nH]cc(CCN)c4c3)CC2)cc1 [Example 3, N-[4-(4-{2-[3-(2-Aminoethyl)-1H-indol-5-yloxy]acetyl}piperazin-1-yl)phenyl]acetamide hydrochloride]				EC50 [1]: 0.3 to 1.2 nM
NCCc1c[nH]c2ccc(OCC(=O)N3CCN(c4ccc(NC(=O)c5ccccc5)cc4)CC3)cc12 [Example 4, N-[4-(4-{2-[3-(2-Aminoethyl)-1H-indol-5-yloxy]acetyl}piperazin-1-yl)phenyl]benzamide hydrochloride]	75 nM	75	1 nM	
CS(=O)(=O)Nc1ccc(N2CCN(C(=O)COc3ccc4[nH]cc(CCN)c4c3)CC2)cc1 [Example 5, N-[4-(4-{2-[3-(2-Aminoethyl)-1H-indol-5-yloxy]acetyl}piperazin-1-yl)phenyl]methanesulfonamide hydrochloride]				Ki [2]: 0.7 nM; EC50 [3]: 6.5 nM; Ki [4]: 3.2 nM
CS(=O)(=O)N(c1ccc(N2CCN(C(=O)COc3ccc4[nH]cc(CCN)c4c3)CC2)cc1)S(C)(=O)=O [Example 6, N-[4-(4-{2-[3-(2-Aminoethyl)-1H-indol-5-yloxy]acetyl}piperazin-1-yl)phenyl](methanesulfonyl)methanesulfonamide hydrochloride]	79 nM	18	4.3 nM	
CCS(=O)(=O)Nc1ccc(N2CCN(C(=O)COc3ccc4[nH]cc(CCN)c4c3)CC2)cc1 [Example 7, N-[4-(4-{2-[3-(2-Aminoethyl)-1H-indol-5-yloxy]acetyl}piperazin-1-yl)phenyl]ethanesulfonamide hydrochloride]	44 nM	28	1.6 nM	
NCCc1c[nH]c2ccc(OCC(=O)N3CCN(c4ccc(NS(=O)(=O)c5cccs5)cc4)CC3)cc12 [Example 8, Thiophene-2-{N-[4-(4-{2-[3-(2-aminoethyl)-1H-indol-5-yloxy]acetyl}piperazin-1-yl)phenyl]sulfonamide hydrochloride]	26 nM	22	1.2 nM	
NCCc1c[nH]c2ccc(OCC(=O)N3CCN(c4ccc(N(S(=O)(=O)c5cccs5)S(=O)(=O)c5cccs5)cc4)CC3)cc12 [Example 9, N-[4-(4-{2-[3-(2-Aminoethyl)-1H-indol-5-yl-oxy]acetyl}piperazin-1-yl)phenyl](thiophene-2-sulfonyl)-thiophene-2-sulfonamide hydrochloride]	38 nM			
Cc1noc(C)c1S(=O)(=O)Nc1ccc(N2CCN(C(=O)COc3ccc4[nH]cc(CCN)c4c3)CC2)cc1 [Example 10, 3,5-Dimethylisoxazole-4-{N-[4-(4-{2-[3-(2-aminoethyl)-1H-indol-5-yloxy]acetyl}-piperazin-1-yl)phenyl]sulfonamide hydrochloride]	20 nM	20	1 nM	
CCOC(=O)Nc1ccc(N2CCN(C(=O)COc3ccc4[nH]cc(CCN)c4c3)CC2)cc1 [Example 11, 2-[3-(2-Aminoethyl)-1H-indol-5-yloxy]-1-[4-(4-N-{ethoxycarbonyl}aminophenyl)piperazin-1-yl]-ethanone hydrochloride]	105 nM	44	2.4 nM	
NCCc1c[nH]c2ccc(OCC(=O)N3CCN(c4ccccc4[N+](=O)[O-])CC3)cc12 [Example 14, 2-[3-(2-Aminoethyl)-1H-indol-5-yloxy]-1-[4-(2-nitrophenyl)piperazin-1-yl)ethanone hydrochloride]		10	1 nM	IC50 [5]: 9.5 nM
CS(=O)(=O)Nc1ccc(N2CCN(C(=O)CCCCCOc3ccc4[nH]cc(CCN)c4c3)CC2)cc1 [Example 59, N-[4-(4-{6-[3-(2-Aminoethyl)-1H-indol-5-yloxy]hexanoyl}piperazin-1-yl)phenyl]methane sulfonamide hydrochloride]				Ki [2]: 1.3 nM; EC50 [3]: 0.52 nM; Ki [4]: 1.3 nM
NCCc1c[nH]c2ccc(O)cc12 [serotonin, reference compound]				blocking the formation of cAMP (in words) ([1]; OK kidney epithelial cell line, forskolin-stimulated): capable of effectively blocking the formation of cAMP
